For 19 compounds, IC50 results are on record in patent publication US20240376085A1 (Janssen Pharmaceutica NV, priority 2021, published 2024).

SMILES strings stand for the structures. A value given as a limit tells only on which side of the number the result lay.

The target in one assay is T1, IL-17A : IL-17RA binding (Homo sapiens, UniProt Q16552, K93Q).
T1 construct: Name: IL-17A-Flag
The experiment in a line: IL-17A(FLAG-tagged):IL-17RA(His-tagged) binding disruption Eu-HTRF assay, Protocol 1. The following applies: FLAG-IL-17A 2.5 nM at 2x final concentration; average if tested more than once. A digest of the protocol:
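IC50 came from a one-site competition fit of the acceptor/donor (665/620 nm) HTRF ratio. His-tagged IL-17RA, Eu-anti-FLAG and D2-anti-His were added after a 1 h rt compound preincubation with FLAG-tagged IL-17A dimer in PBS/0.01% Triton X-100, followed by 2 h at rt before reading.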
(In general: In TR-FRET formats the signal depends on donor and acceptor labels being close together.)

The subject of assay [1] is IL-17A-induced G-CSF production in human normal keratinocyte (NHK). The assay can be described thus: NHK assay: IL-17A-induced G-CSF production in normal human keratinocytes. In kind it is cell-based. The following applies: 24 h, IL-17A 5 ng/mL, average if tested more than once. The essentials:
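Stimulus rhIL-17A 5 ng/mL final, premixed 1 h rt with compound; adult NHK, 5% FBS, 0.2% DMSO. Viability by CellTiter-Glo vs DMSO.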

T1 sequence (Q16552 with tags, fused parts or gaps K93Q): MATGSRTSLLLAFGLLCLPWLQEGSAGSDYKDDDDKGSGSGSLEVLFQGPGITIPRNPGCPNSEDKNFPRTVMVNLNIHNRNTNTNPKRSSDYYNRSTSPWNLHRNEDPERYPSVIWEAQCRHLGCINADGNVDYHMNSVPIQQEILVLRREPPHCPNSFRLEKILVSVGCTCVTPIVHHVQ

As a reminder, the IC50 is the point on the concentration scale where inhibition reaches its midpoint. For `C[C@@H](NC(=O)CCC(F)(F)F)c1ccc2[nH]c([C@@H](NC(=O)C3(C)CC3(F)F)C3CCC(F)(F)CC3)nc2c1` (relative stereo) [Example 109, N—((S)-(4,4-Difluorocyclohexyl)(5-((R*)-1-(4,4,4-trifluorobutanamido)ethyl)-1H-benzo[d]imidazol-2-yl)methyl)-2,2-difluoro-1-methylcyclopropane-1-carboxamide], the IC50 at IL-17A : IL-17RA binding was over 100 nM; in assay [1] (Homo sapiens, Keratinocyte) it was over 100 nM.
On to `Cn1nccc1C(=O)N[C@H](c1nc2cc(C(NC(=O)CCC(F)(F)F)C3CCC3)ccc2[nH]1)C1CCC(F)(F)CC1` (single isomer, unassigned) [Example 42, N—((S)-(5-((S*)-Cyclobutyl(4,4,4-trifluorobutanamido)methyl)-1H-benzo[d]imidazol-2-yl)(4,4-difluorocyclohexyl)methyl)-1-methyl-1H-pyrazole-5-carboxamide], for which the IC50 is over 100 nM at IL-17A : IL-17RA binding and under 50 nM in assay [1] (Homo sapiens, Keratinocyte).
In the case of `CC(CC(=O)N[C@@H](c1ccc2nc([C@H](CC(C)(C)C(F)(F)F)NC(=O)c3nonc3C3CC3)[nH]c2c1)C1CC1)C(F)(F)F` (single isomer, unassigned) [Example 182, 4-Cyclopropyl-N—((S)-1-(6-((R)-cyclopropyl((S*)-4,4,4-trifluoro-3-methylbutanamido)methyl)-1H-benzo[d]imidazol-2-yl)-4,4,4-trifluoro-3,3-dimethylbutyl)-1,2,5-oxadiazole-3-carboxamide], the IC50 (on IL-17A : IL-17RA binding; in assay [1]) was under 50 nM in each case.
As to `C[C@@H](NC(=O)CCC(F)(F)F)c1ccc2[nH]c([C@@H](NC(=O)c3cc(CCC(F)(F)F)on3)C3CCC(F)(F)CC3)nc2c1` [Example 217, N—((S)-(4,4-Difluorocyclohexyl)(5-((R)-1-(4,4,4-trifluorobutanamido)ethyl)-1H-benzo[d]imidazol-2-yl)methyl)-5-(3,3,3-trifluoropropyl)isoxazole-3-carboxamide], the IC50 is over 100 nM on IL-17A : IL-17RA binding and over 100 nM in assay [1] (Homo sapiens, Keratinocyte).
As to `CC(C)c1snnc1C(=O)N[C@H](c1nc2cc([C@@H](C)NC(=O)CCC(F)(F)F)ccc2[nH]1)C1CCC(F)(F)CC1` [Example 206, N—((S)-(4,4-Difluorocyclohexyl)(5-((R)-1-(4,4,4-trifluorobutanamido)ethyl)-1H-benzo[d]imidazol-2-yl)methyl)-5-isopropyl-1,2,3-thiadiazole-4-carboxamide], the IC50 on IL-17A : IL-17RA binding is 50 to 100 nM; in assay [1] (Homo sapiens, Keratinocyte) it was under 50 nM.
On to `Cc1nonc1C(=O)N[C@H](c1nc2ccc([C@H](NC(=O)CC3CC(F)(F)C3)C3CC3)cc2[nH]1)[C@H]1C[C@H](CC(F)(F)F)C1` (single isomer, unassigned) [Example 245], for which the IC50 on IL-17A : IL-17RA binding was over 100 nM; in assay [1] (Homo sapiens, Keratinocyte), over 100 nM.
`Cc1c(C(=O)N[C@H](c2nc3cc([C@@H](C)NC(=O)CCC(F)(F)F)ccc3[nH]2)C2CCC(F)(F)CC2)cnn1CCC#N` [Example 17, 1-(2-Cyanoethyl)-N—[(S)-(4,4-difluorocyclohexyl)-[6-[(1R)-1-(4,4,4-trifluorobutanoylamino)ethyl]-1H-benzimidazol-2-yl]methyl]-5-methyl-pyrazole-4-carboxamide]: the IC50 on IL-17A : IL-17RA binding was over 100 nM; in assay [1] (Homo sapiens, Keratinocyte), over 100 nM.
As to `C[C@@H](NC(=O)CCC(F)(F)F)c1ccc2nc([C@@H](NC(=O)c3cnnn3CCC(F)F)C3CCC(F)(F)CC3)[nH]c2c1` [Example 74, N—((S)-(4,4-Difluorocyclohexyl)(6-((R)-1-(4,4,4-trifluorobutanamido)ethyl)-1H-benzo[d]imidazol-2-yl)methyl)-1-(3,3-difluoropropyl)-1H-1,2,3-triazole-5-carboxamide], the IC50 was over 100 nM at IL-17A : IL-17RA binding and over 100 nM in assay [1] (Homo sapiens, Keratinocyte).
For `COCC(NC(=O)CC1CC(F)(F)C1)c1ccc2[nH]c([C@H](COC(C)(C)C(F)(F)F)NC(=O)c3nonc3C3CC3)nc2c1` (single isomer, unassigned) [Example 165, 4-Cyclopropyl-N—((R)-1-(5-((S*)-1-(2-(3,3-difluorocyclobutyl)acetamido)-2-methoxyethyl)-1H-benzo[d]imidazol-2-yl)-2-((1,1,1-trifluoro-2-methylpropan-2-yl)oxy)ethyl)-1,2,5-oxadiazole-3-carboxamide], the IC50 on IL-17A : IL-17RA binding is over 100 nM; in assay [1] (Homo sapiens, Keratinocyte), over 100 nM.
Turning to `C[C@@H](NC(=O)CCC(F)(F)F)c1ccc2[nH]c([C@@H](NC(=O)c3cnnn3CCC(F)(F)F)C3CCC(F)(F)CC3)nc2c1` [Example 4, N—[(S)-(4,4-Difluorocyclohexyl)-[6-[(1R)-1-(4,4,4-trifluorobutanoylamino)ethyl]-1H-benzimidazol-2-yl]methyl]-3-(3,3,3-trifluoropropyl)triazole-4-carboxamide], the IC50 at IL-17A : IL-17RA binding was over 100 nM; in assay [1] (Homo sapiens, Keratinocyte), 50 to 100 nM.
On the same counts, the results for `CC(C(F)F)n1cc(C(=O)N[C@H](c2nc3cc([C@@H](C)NC(=O)CCC(F)(F)F)ccc3[nH]2)C2CCC(F)(F)CC2)nn1` (stereo partly drawn) [Example 85, N—((S)-(4,4-Difluorocyclohexyl)(5-((R)-1-(4,4,4-trifluorobutanamido)ethyl)-1H-benzo[d]imidazol-2-yl)methyl)-1-(1,1-difluoropropan-2-yl)-1H-1,2,3-triazole-4-carboxamide] are over 100 nM and over 100 nM.
For `CC(C)C(NC(=O)CCC(F)(F)F)c1ccc2[nH]c([C@@H](NC(=O)c3ccnn3C)C3CCC(F)(F)CC3)nc2c1` (single isomer, unassigned) [Example 45, N—((S)-(4,4-Difluorocyclohexyl)(5-((R*)-2-methyl-1-(4,4,4-trifluorobutanamido)propyl)-1H-benzo[d]imidazol-2-yl)methyl)-1-methyl-1H-pyrazole-5-carboxamide], the IC50 on IL-17A : IL-17RA binding was over 100 nM; in assay [1], 50 to 100 nM.
Consider `CC(C)n1cncc1C(=O)N[C@H](c1nc2cc([C@@H](C)NC(=O)CCC(F)(F)F)ccc2[nH]1)C1CCC(F)(F)CC1` [Example 208, N—((S)-(4,4-Difluorocyclohexyl)(5-((R)-1-(4,4,4-trifluorobutanamido)ethyl)-1H-benzo[d]imidazol-2-yl)methyl)-1-isopropyl-1H-imidazole-5-carboxamide], for which the IC50 on IL-17A : IL-17RA binding was over 100 nM; in assay [1] (Homo sapiens, Keratinocyte) it was over 100 nM.
Consider `CC(CC(=O)N[C@@H](c1ccc2[nH]c([C@H](COC(C)(C)C(F)(F)F)NC(=O)c3nonc3C3CC3)nc2c1)C1CC1)C(F)F` (single isomer, unassigned) [Example 175, 4-Cyclopropyl-N—((R)-1-(5-((R)-cyclopropyl((R*)-4,4-difluoro-3-methylbutanamido)methyl)-1H-benzo[d]imidazol-2-yl)-2-((1,1,1-trifluoro-2-methylpropan-2-yl)oxy)ethyl)-1,2,5-oxadiazole-3-carboxamide], for which the IC50 at IL-17A : IL-17RA binding was under 50 nM; in assay [1] (Homo sapiens, Keratinocyte) it was over 100 nM.
For the compound `C[C@@H](NC(=O)CCC(F)(F)F)c1ccc2[nH]c([C@@H](NC(=O)c3cc(O)n(CCC(F)(F)F)n3)C3CCC(F)(F)CC3)nc2c1` [Example 93, N—((S)-(4,4-Difluorocyclohexyl)(5-((R)-1-(4,4,4-trifluorobutanamido)ethyl)-1H-benzo[d]imidazol-2-yl)methyl)-5-hydroxy-1-(3,3,3-trifluoropropyl)-1H-pyrazole-3-carboxamide], the IC50 was over 100 nM on IL-17A : IL-17RA binding and over 100 nM in assay [1] (Homo sapiens, Keratinocyte).
For `C[C@@H](NC(=O)CCC(F)(F)F)c1ccc2[nH]c([C@@H](NC(=O)c3ncn(CC4CC4)n3)C3CCC(F)(F)CC3)nc2c1` [Example 29, 1-(Cyclopropylmethyl)-N—[(S)-(4,4-difluorocyclohexyl)-[6-[(1R)-1-(4,4,4-trifluorobutanoylamino)ethyl]-1H-benzimidazol-2-yl]methyl]-1,2,4-triazole-3-carboxamide], the IC50 was over 100 nM on IL-17A : IL-17RA binding and over 100 nM in assay [1] (Homo sapiens, Keratinocyte).
For `CC(CC(=O)N[C@H](C)c1ccc2nc([C@@H](NC(=O)c3cc(F)ccc3F)C3CCC(F)(F)CC3)[nH]c2c1)C(F)(F)F` (single isomer, unassigned) [Example 136, N—((S)-(4,4-Difluorocyclohexyl)(6-((R)-1-((R*)-4,4,4-trifluoro-3-methylbutanamido)ethyl)-1H-benzo[d]imidazol-2-yl)methyl)-2,5-difluorobenzamide], the IC50 at IL-17A : IL-17RA binding was over 100 nM; in assay [1] (Homo sapiens, Keratinocyte) it was over 100 nM.
With `C[C@@H](NC(=O)CCC(F)(F)F)c1ccc2[nH]c([C@@H](NC(=O)C34CC(C3)C4)C3CCC(F)(F)CC3)nc2c1` [Example 112, N—((S)-(4,4-Difluorocyclohexyl)(5-((R)-1-(4,4,4-trifluorobutanamido)ethyl)-1H-benzo[d]imidazol-2-yl)methyl)bicyclo[1.1.1]pentane-1-carboxamide], the IC50 at IL-17A : IL-17RA binding is over 100 nM; in assay [1] (Homo sapiens, Keratinocyte), over 100 nM.
On to `Cc1nonc1C(=O)N[C@H](c1nc2cc([C@H](NC(=O)CC3CC(F)(F)C3)C3CC3)ccc2[nH]1)C1CCC(F)(F)CC1` [Example 141, N—((S)-(5-((R)-Cyclopropyl(2-(3,3-difluorocyclobutyl)acetamido)methyl)-1H-benzo[d]imidazol-2-yl)(4,4-difluorocyclohexyl)methyl)-4-methyl-1,2,5-oxadiazole-3-carboxamide], for which the IC50 was under 50 nM at IL-17A : IL-17RA binding and under 50 nM in assay [1] (Homo sapiens, Keratinocyte).
